Laboratory results from patent publication US10323007B1, “N2N N4-disubstituted quinazoline-2,4-diamines and uses thereof” (University of South Florida, priority 2016, dated 2019).
In brackets after ≈: the same amount, converted by molar mass. Like-named read-outs stand apart in the source and are kept apart here.

Assays:
[1] = tested on: A. baumannii 1403; assay: minimal bactericidal concentration (MBC) assay, strain 1403; assay type: cell-based; conditions: Acinetobacter baumannii, Table 8, read-out: MBC90 1403
Source text: (§1) Lead quinazolines 4, 5, 26, 29, 27, and 30 were selected to be further evaluated for antimicrobial effects. The first assay utilized was a minimal bactericidal concentration (MBC) assay, to assess whether leads compounds were bacteriostatic or bactericidal. The six lead agents were screened to identify their MBC90 towards each of the six A. baumannii isolates used in the SAR studies (Table 8), however for simplicity only the representative data for isolate 1646 is detailed below (Table 6). […] Further to this, we were able to obtain complete eradication of bacterial growth for these two compounds at 1 μM for 24 and 5 μM for 25.
(§2) MIC and MBC assays were performed in this study as documented by us previously.^17,23,24,25 The A. baumannii strains used are detailed in Table 7.

[2] = tested on: A. baumannii 1650; assay: MIC assay, strain 1650; assay type: cell-based, Acinetobacter baumannii; conditions: strain 1650
Procedure: as §2

[3] = tested on: A. baumannii 1651; assay: MIC assay, strain 1651; assay type: cell-based, Acinetobacter baumannii; conditions: strain 1651
Procedure: as §2

[4] = tested on: A. baumannii 1646 biofilm; assay: biofilm eradication determination assay, strain 1646; assay type: cell-based, Acinetobacter baumannii
Procedure: (§3) These assays were performed as described by us previously,^26,24 as follows. Each of the A. baumannii strains were grown overnight in Mueller Hinton Broth (MHB). The next day these were used to seed fresh MHB to an OD600 of 0.5, with 150 μL then added to the wells of a 96 well plate and grown for 24 hours at 37° C. After 24 hours, the planktonic bacteria were carefully removed and fresh MHB was added with increasing concentrations of lead quinazolines. After incubation at 37° C. for 24 hours, planktonic cells were removed and biofilms were washed three times with phosphate buffered saline (PBS). Biofilms were then resuspended in PBS and plated for cell viability on tryptic soy agar. Biofilm recovery was assessed compared to no drug controls, and determined as percent eradication. This was used to determine MBEC90 values (Minimal Biofilm Eradication Concentration), where the viability of cells within the biofilm was reduced by 90%.

[5] = tested on: A. baumannii 1650 biofilm; assay: biofilm eradication determination assay, strain 1650; assay type: cell-based, Acinetobacter baumannii; conditions: 90% biofilm eradication, Table 8
Procedure: as §3

[6] = tested on: A. baumannii 1652; assay: MIC assay, strain 1652; assay type: cell-based, Acinetobacter baumannii; conditions: strain 1652
Procedure: as §2

[7] = tested on: A. baumannii 1651; assay: minimal bactericidal concentration (MBC) assay, strain 1651; assay type: cell-based; conditions: Acinetobacter baumannii, Table 8, read-out: MBC90 1651
Source text: as §1, §2

[8] = tested on: A. baumannii 1652 biofilm; assay: biofilm eradication determination assay, strain 1652; assay type: cell-based, Acinetobacter baumannii; conditions: 90% biofilm eradication, Table 8
Procedure: as §3

[9] = tested on: A. baumannii 1403; assay: MIC assay, strain 1403; assay type: cell-based, Acinetobacter baumannii; conditions: strain 1403; for MIC: Acinetobacter baumannii
Procedure: as §2

[10] = tested on: A. baumannii 1650; assay: minimal bactericidal concentration (MBC) assay, strain 1650; assay type: cell-based; conditions: Acinetobacter baumannii, Table 8, read-out: MBC90 1650
Source text: as §1, §2

[11] = tested on: A. baumannii 1649; assay: MIC assay, strain 1649; assay type: cell-based, Acinetobacter baumannii; conditions: strain 1649
Procedure: as §2

[12] = tested on: human HepG2 cells; assay type: cell-based
Procedure: Cytotoxicity assays were performed using human HepG2 cells (human liver epithelial with hepatocellular carcinoma), as described by us previously.^17,24 Cells were cultured in Dulbecco's modified eagle medium (DMEM), supplemented with 10% fetal bovine serum and 1% penicillin-streptomycin for 3 days at 37° C. and 5% CO2. Cells were then diluted to 1×10^5 ml^−1 using fresh DMEM and added to 96 well tissue culture plates at a volume of 100 μL. Plates were incubated for 24 hours at 37° C. and 5% CO2, allowing the cells to adhere to the plastic. […] Plates were then incubated for 48 hours at 37° C. and 5% CO2. After 48 hours the DMEM was removed and 100 μL of new media was added containing MTT (3-(4, 5-dimethylthiazol-2-yl)-2, 5-diphenyltetrazolium bromide), followed by incubation for four hours at 37° C. and 5% CO2. […] Lead compounds were solvated in 100% DMSO for these studies, which served as the negative control. LD50 values were determined for each compound by comparison to vehicle only controls.

[13] = tested on: A. baumannii 1403 biofilm; assay: biofilm eradication determination assay, strain 1403; assay type: cell-based, Acinetobacter baumannii; conditions: 90% biofilm eradication, Table 8
Procedure: as §3

[14] = tested on: A. baumannii 1652; assay: minimal bactericidal concentration (MBC) assay, strain 1652; assay type: cell-based; conditions: Acinetobacter baumannii, Table 8, read-out: MBC90 1652
Source text: as §1, §2

[15] = tested on: A. baumannii 1649; assay: minimal bactericidal concentration (MBC) assay, strain 1649; assay type: cell-based; conditions: Acinetobacter baumannii, Table 8, read-out: MBC90 1649
Source text: as §1, §2

[16] = tested on: A. baumannii 1646; assay: minimal bactericidal concentration (MBC) assay, strain 1646; assay type: cell-based, Acinetobacter baumannii
Outline: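 MBC90 determined against A. baumannii clinical isolates to distinguish bactericidal from bacteriostatic activity, following the group's previously published MIC/MBC protocol.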

[17] = tested on: A. baumannii 1651 biofilm; assay: biofilm eradication determination assay, strain 1651; assay type: cell-based, Acinetobacter baumannii; conditions: 90% biofilm eradication, Table 8
Procedure: as §3

CNc1nc(NCc2ccccc2)nc2ccc(C)cc12 [Compound 5, N^2-Benzyl-N^4,6-dimethylquinazoline-2,4-diamine]
MBC [1]: 30 µM (≈ 8.35 µg/mL)
MIC ([2]; Acinetobacter baumannii, Table 2, read-out: 1650 MIC): 50 µM (≈ 13.9 µg/mL)
MIC ([2]; Acinetobacter baumannii, lead quinazolines, Table 8, read-out: MIC 1650): 35 µM (≈ 9.74 µg/mL)
MIC ([2]; Tables 1, 3, 4, 5 and footnotes, read-out: 1650 MIC): 50 µM (≈ 13.9 µg/mL)
MIC ([3]; Acinetobacter baumannii, Table 2, read-out: 1651 MIC): 10 µM (≈ 2.78 µg/mL)
MIC ([3]; Acinetobacter baumannii, lead quinazolines, Table 8, read-out: MIC 1651): 1 µM (≈ 0.278 µg/mL)
MIC ([3]; Tables 1, 3, 4, 5 and footnotes, read-out: 1651 MIC): 10 µM (≈ 2.78 µg/mL)
MBEC90 ([4]; Table 6, representative data for isolate 1646): 2.8 µM
reduction in biofilm viability ([4]; at 10 μM, strain 1646): 3 log
MBEC90 1646 ([4]; strain 1646, 90% biofilm eradication, Table 8 and text): 2.8 µM
MBEC90 1650 [5]: 21 µM
MIC ([6]; Acinetobacter baumannii, Table 2, read-out: 1652 MIC): 20 µM (≈ 5.57 µg/mL)
MIC ([6]; Acinetobacter baumannii, lead quinazolines, Table 8, read-out: MIC 1652): 20 µM (≈ 5.57 µg/mL)
MIC ([6]; Tables 1, 3, 4, 5 and footnotes, read-out: 1652 MIC): 20 µM (≈ 5.57 µg/mL)
MBC [7]: 1.5 µM (≈ 0.418 µg/mL)
MBEC90 1652 [8]: 68 µM
MIC ([9]; Tables 1, 3, 4, 5 and footnotes, read-out: 1403 MIC): 10 µM (≈ 2.78 µg/mL)
MIC ([9]; lead quinazolines, Table 8, read-out: MIC 1403): 10 µM (≈ 2.78 µg/mL)
1403 MIC ([9]; Table 2): 10 μm
MBC [10]: 27 µM (≈ 7.52 µg/mL)
MIC ([11]; Acinetobacter baumannii, Table 2, read-out: 1649 MIC): 25 µM (≈ 6.96 µg/mL)
MIC ([11]; Acinetobacter baumannii, lead quinazolines, Table 8, read-out: MIC 1649): 21 µM (≈ 5.85 µg/mL)
MIC ([11]; Tables 1, 3, 4, 5 and footnotes, read-out: 1649 MIC): 25 µM (≈ 6.96 µg/mL)
HepG2 cell viability ([12]; at 25 μM (highest concentration tested)): 44%
LD50(HepG2) ([12]; human, 48 h): 22 µM
MBEC90 1403 [13]: 13 µM
MBC [14]: 12 µM (≈ 3.34 µg/mL)
MBC [15]: 9.3 µM (≈ 2.59 µg/mL)
MBC ([16]; Acinetobacter baumannii, 1646, strain 1646, Table 8 and text, read-out: MBC90 1646): 0.77 µM (≈ 0.214 µg/mL)
MBC ([16]; Acinetobacter baumannii, Table 6, representative data for isolate 1646, read-out: MBC90): 0.8 µM (≈ 0.223 µg/mL)
MBEC90 1651 [17]: 11 µM
